In patent US20050208058A1, “Compositions and methods for modulating cell division” (priority 2003, published 2005):
d = 2'-deoxy (DNA)

How the values were obtained:
Assay type in all cases: cell-based, human
[1] = system: RPE cells; experiment: BrDU staining of cells treated in tandem with two siRNAs (p53 dependence); settings: FIG. 6B
Experimental: (§1) To further study the effects of silencing centrosomal genes, the following cell cycle experiments were performed using RPE cells. In immunofluorescence experiments, cells were delivered by OLIGOFECTAMINE in a media solution containing between 1-100 nanomolar concentration of siRNAs. After 4 hours of incubation with lipofectamine, cells were washed, and cell cycle progression was assayed by (i) treating cells with 5-Bromo-2′-deoxyuridine (BrDU from Sigma, St Louis, Mo.) for 24 hours and staining for BrDU or (ii) staining cells with antibody to Ki-67 (BD Biosciences) according to manufacturer's instructions. BrDU treatment and staining were performed as follows: after 50-70 hours incubation with siRNA, BrDU was added to cells at a final concentration of 5 μg/ml. Cells were fixed in −20° C. methanol and then treated with 2N HCL at 22° C. for 30 minutes, incubated with 1:500 mouse anti-BrdU antibody (Becton Dickinson, Palo Alto, Calif.), and labeled with 1:1,000 goat FITC-mouse antibody (Molecular Probes, Inc.). Cells were also treated with 4′,6-diamidino-2-phenylindole (DAPI) (Molecular Probes) according to the manufacturer's instructions. Cells were prepared, imaged, and the resulting images were deconvolved as described in Example 1.
(§2) A number of experiments were conducted to determine if p53 is required for the cell cycle arrest phenotype described herein. FACS analysis of tandem siRNA-treated cells was performed as described in Example 2. BrDU and DAPI imaging was performed as described in Example 2. Intracellular p53 was visualized using anti-p53 antibody that is specific for activated p53 (i.e., p53 phosphorylated at Serine 33) (“α-Pser33-p53” provided by Yoichi Taya and described in Kishis et al., J. Biol. Chem., 276:39115-3922, 2001)

[2] = system: RPE cells; experiment: FACS of cells treated in tandem with two siRNAs (p53 dependence); settings: tandem treatment sip53 then siGCP2; FIG. 6A
Experimental: For flow cytometry (i.e., fluorescence-activated cell sorter or FACS) experiments, siRNAs were delivered to cells as described above, and were incubated for 50-70 hours. To synchronize cells, nocodazole was added to the cells to a concentration of 5 μg/mL for 12 hours. Cells were stained with propidium iodide and analyzed by flow cytometry (FACSCAN; Becton Dickinson) using FLOJO® software (Tree Star, Inc., Ashland, Oreg.).
as §2
In FIG. 6A each line tracing represents FACS data from cells treated in tandem with the siRNAs directed to the gene products indicated above the line. Cells were first treated with siRNA directed to the gene product to the left of the slash. Up to 24 hours later, siRNA directed to the gene product to the right of the slash was added. […] 12 hours before collecting the cells, nocodazole was added to the cells analyzed in the bottom three line tracings. […]

[3] = system: p53; experiment: Western blot of p53 in cytoplasmic and nuclear fractions; settings: relative to mock or silamin transfected cells; FIG. 6D
Text: The Western blot shown cytoplasmic (cyt), and nuclear (nuc) cell fractions blotted with an antibody to p53 (from Callbiochem, San Diego, Calif.). Nuclear fractions were blotted with an antibody for H1 as a control for loading.

[4] = system: RPE cells; experiment: BrDU incorporation after siRNA treatment and nocodazole synchronization; settings: relative to control cells (siRNA to lamin), after nocodazole release; FIG. 2A
Experimental: as §1
Upon release from nocodazole treatment, proliferating cells typically resume cell cycle progression. Chromosomal DNA in the cells was imaged using DAPI (faint ghost-like staining) and/or BrDU (brighter staining). Although DAPI can be used to visualize DNA at any stage of the cell cycle, BrDU is only incorporated into newly synthesized DNA only during S-phase. Thus, BrDU incorporation can be used as a marker of cells that progress through at least one S-phase of the cell cycle. Control cells in this experiment were treated with siRNA to lamin.

[5] = system: CDK2; experiment: CDK2 kinase assay from siRNA-treated cells; settings: after sustained siRNA treatment, vs siRNA to laminin; FIG. 2C
Experimental: Kinase assays were done on RPE cells treated with siRNAs as described above. Treated cells were lysed in 1% NP-40 lysis buffer (NP-40 buffer: 20 mM NaPO4 pH 7.4, 1% NP-40, 250 mM NaCl, 5 mM ethylenediaminetetraacetic acid (EDTA), 5 mM dithiothreitol (DTT), 1 mM phenylmethylsulfonyl fluoride, 2 μg/ml leupeptin, and 1.5 μg/ml aprotinin) supplemented with 25 mM-glycerophosphate. For measurement of CDK2-associated activity in vitro, the complexes were immunoprecipitated for 2 hours at 4° C. using anti-cylin A antibody (Santa Cruz Biotechnology). Immunocomplexes were bound to protein A-Sepharose beads for an additional hour at 4° C. and washed four times with lysis buffer followed by one wash with the kinase buffer (20 mM Tris-HCl pH 7.5, 50 mM KCl, 7.5 mM MgCl 2, 1 mM DTT, 25 mM-glycerophosphate, 1 mM phenylmethylsulfonyl fluoride, 2 μg/ml leupeptin, and 1.5 μg/ml aprotinin). […] Phosphorylated proteins were analyzed on 10% SDS-polyacrylamide gels followed by autoradiography and quantified by phosphorimaging (Molecular Imager GS-250; Bio-Rad, Hercules, Calif.).
FIG. 2C is a graph quantifying the results of CDK2 kinase assays from cells treated with siRNA directed to laminin or pericentrin B. CDK2 activity is required for proliferating cells through to progress through the G1 stage of the cell cycle.

| Sequence | effect of pretreatment on number of cells that divided after sipericentrin or siGCP2 ([1]; sip53 pretreatment, 6C) | effect of pre-treatment on siGCP2-mediated block of the nocodazole shift [2] | nuclear p53 (Western blot) [3] | incorporation of BrDU into chromosomal material [4] | cells incorporating BrDU ([1]; tandem treatment silaminin then indicated siRNA, vs silamin/silamin) | CDK2 expression and/or activity [5] |
| --- | --- | --- | --- | --- | --- | --- |
| GGACAAGGGUUGGGCUGGG (siRNA; RNA, 3' dTdT, backbone not given here) [sip53, siRNA directed to p53, reference compound] | increased the number of cells that divided | inhibited the siGCP-mediated block of the nocodazole shift | nuclear p53 is activated |  |  |  |
| UUGGAACAGCUGCAGCAGA (siRNA; RNA, 3' dTdT, backbone not given here) [pericentrin B, siRNA directed only to pericentrin B (Kendrin)] |  |  |  | clearly inhibited incorporation of BrDU | substantially fewer | greatly diminished |
